{"source": "patent US9181286B2", "about": "“Pantothenate derivatives for the treatment of neurologic disorders” (Retrophin, Inc., priority 2012, dated 2015)", "key": {"HEK 293T cells": {"test_system": "HEK 293T cells", "assay": "Acetyl-CoA level in HEK 293T cells by mass spectrometry", "type": "cell-based, human", "details": "200 μM compound, p<0.0005", "procedure": "FIG. 1 is a bar graph showing the levels of acetyl CoA in human HEK 293T cells, as measured by mass spectrometry, following treatment with the compounds of Examples 2, 5, 7 and 12.\nThe compounds of Examples 2, 5, 7 and 12 were tested in immortalized human cells (HEK 293T). The amount of acetyl-CoA (the downstream result of PANK) following administration of the compounds of Examples 2, 5, 7 and 12 were measured by mass spectrometry.\nTreatment of HEK 293T cells with 20 μM of the compound of Example 7 afforded a 38% increase in acetyl CoA over baseline (p<0.005)."}, "Pank1−/− mice": {"test_system": "Pank1−/− mice", "assay": "Liver Coenzyme A (mBBr-CoA, HPLC) in Pank1−/− mice", "type": "in vivo", "procedure": "Compounds of the invention were tested for efficacy in Pank1^−/− mice (strain 129SvJ×C57BL/6J background) which were compared with age-matched Pank1^+/+ (strain 129SvJ×C57BL/6J) littermates, ages 8-12 weeks. Each mouse was identified with a coded ear tag and weighed on the first day of testing. Each compound was administered to 4-5 mice by intraperitoneal injection at a dose of 1.2 μmoles/g body weight in 5 μL dimethylsulfoxide once daily for 5 days, and mice were then fasted overnight, weighed and euthanized. Untreated mice received 5 μL dimethylsulfoxide once daily for 5 days and then were fasted overnight prior to weighing and euthanasia. Livers were excised from each mouse, aliquots were snap-frozen in liquid nitrogen, and stored at −80° C. Within 7 days, liver samples were thawed on ice, weighed and analyzed for coenzyme A content as described below. Efficacy was indicated by a statistically significant increase in the liver Coenzyme A levels in the Pank1^−/− mice as compared to the liver from untreated Pank1^−/− mice and by equivalence in comparison with Coenzyme A levels in untreated Pank1^+/+ mice.\nCoA Measurements: Extraction of Fibroblasts and Liver and Derivatization of Coenzyme A Prior to High Pressure Liquid Chromatography (HPLC) […]\nCoenzyme A Quantification by HPLC […]"}, "[1]": {"test_system": "Escherichia coli K-12 strain SJ16", "assay": "SJ16 recovery (in vitro bacterial testing, growth without pantothenate)", "type": "cell-based", "details": "test compound 8 μM in growth medium, 37° C., 18 hours, solid medium without calcium pantothenate (non-permissive)", "procedure": "Thus, it serves as a useful assay in determining whether a compound can rescue an organism deficient in PANK, the cause of PKAN. Compounds of the present invention were tested for toxicity and for the ability to support growth of Escherichia coli K-12 strains SJ16 (see, e.g., Jackowski et al., J. Bacteriol., 148, 926-932, 1981) and DV70 (see, e.g., Vallari et al., J. Bacteriol., 169, 5795-5800, 1987) under permissive and non-permissive conditions. The test compound in a solvent (dimethylsulfoxide, DMSO) was added to growth medium at a final concentration of 8 μM. Solvent alone (DMSO) was added to the growth medium at a final concentration ≦0.1% as a control.\nStrain SJ16 was grown at 37° C. for 18 hours on a solid medium containing agar (1.5%), M9 minimal essential salts (see, Miller, Experiments in Molecular Genetics. Cold Spring Harbor Laboratory, Cold Spring Harbor, N.Y., 1972), glucose (0.4%), methionine (50 μg/ml), and with (permissive) or without (non-permissive) calcium pantothenate (1 μM). Lack of growth with calcium pantothenate supplementation indicated toxicity. Growth without calcium pantothenate supplementation indicated the ability of the bacteria to metabolize the compound to yield pantothenate or β-alanine."}}, "data": [{"smiles": "COC(=O)CCNC(=O)[C@H](O)C(C)(C)COP(=O)(N[C@@H](C)C(=O)OC)Oc1ccccc1", "note": "(stereo partly drawn) [Example 2, methyl 3-((2R)-2-hydroxy-4-(((((S)-1-methoxy-1-oxopropan-2-yl)amino)(phenoxy)phosphoryl)oxy)-3,3-dimethylbutanamido)propanoate]", "values": [{"measurement": "increase in acetyl CoA over baseline", "setting": "HEK 293T cells", "result": 42, "unit": "%"}, {"measurement": "levels of CoA in PANK knockout mice (in words)", "setting": "Pank1−/− mice; PANK knockout mice, liver mBBr CoA, FIG. 2, compared with normal mice", "result": "restored levels of CoA to those seen in normal mice"}, {"measurement": "pmol mBBR-CoA/mg Liver, Mean", "setting": "Pank1−/− mice; pank1 KO mice, intraperitoneal 1.2 μmoles/g body weight once daily for 5 days, fasted overnight, liver, n=5", "result": 563.358, "unit": "pmol mBBR-CoA/mg Liver"}, {"measurement": "SJ16 Recovery", "setting": "[1]", "result": "Yes"}]}]}
